Laboratory results reported in PMC8842277, “Highly Antiproliferative Latonduine and Indolo[2,3-c]quinoline Derivatives: Complex Formation with Copper(II) Markedly Changes the Kinase Inhibitory Profile” (Journal of Medicinal Chemistry, 2022).

Key:
[1] = tested on: HCT-116 isogenic p53-knock-out subline; assay: MTT assay, 96 h; type: cell-based, human; conditions: read-out: IC50 HCT-116p53ko, mean
Description: (§1) The oncosuppressor protein p53 controls the cellular response to DNA strand breaks induced by cytotoxic drugs or by radiation.[58] The p53 protein may enhance cell chemosensitivity by promoting apoptosis via different mechanisms including activation of proapoptotic genes such as bax and repression of antiapoptotic genes such as bcl-2 or in contrast increase chemoresistance by promoting p21-mediated and p21-independent growth arrest and DNA repair and by activation of antiapoptotic genes such as bcl-x. There is strong evidence that the modulation of drug sensitivity by p53 may be both drug- and cell type-specific.[59] […] Accordingly, essential differences in chemosensitivity were observed between cells with wild-type p53 gene and cells with knocked out p53 gene by homologous recombination.[60]
(§2) Human colonic adenocarcinoma cell lines Colo 205 doxorubicin-sensitive (ATCC-CCL-222) and Colo 320/MDR-LRP multidrug resistant over-expressing ABCB1 (MDR1)-LRP (ATCC-CCL-220.1) were purchased from LGC Promochem, Teddington, UK. The cells were cultured in an RPMI 1640 medium supplemented with 10% heat-inactivated fetal bovine serum, 2 mM L-glutamine, 1 mM Na-pyruvate, and 10 mM HEPES. The semi-adherent human colon cancer cells were detached with Trypsin-Versene (EDTA) solution for 5 min at 37 °C. An MRC-5 human embryonal lung fibroblast cell line (ATCC CCL-171) was purchased from LGC Promochem, Teddington, UK. The cells were cultured in Eagle’s minimal essential medium (EMEM, containing 4.5 g L^–1 glucose) supplemented with a non-essential amino acid mixture, a selection of vitamins, and 10% heat-inactivated fetal bovine serum. The HCT-116 colon carcinoma cells and isogenic p53-knock-out subline were a gift of Prof. Bert Vogelstein from The Johns Hopkins Oncology Center. Cells were cultured in McCoy’s 5A medium supplemented with 10% heat-inactivated fetal bovine serum and 4 mM L-glutamine. All cell lines were incubated at 37 °C, in a 5% CO2, 95% air atmosphere.
(§3) MRC-5 non-cancerous human embryonic lung fibroblast and human colonic adeno-carcinoma cell lines (doxorubicin-sensitive Colo 205 and multidrug resistant Colo 320 colonic adenocarcinoma cells) were used to determine the effect of compounds on cell growth. The effects of increasing concentrations of compounds on cell growth were tested in 96-well flat-bottomed microtiter plates. The compounds were dissolved in DMSO and stock solutions of 10 mM were prepared. These were further diluted in the appropriate cell culture medium by twofold serial dilution starting from 100 or 10 μM for the compounds. The adherent human embryonal lung fibroblast cells were cultured in 96-well flat-bottomed microtiter plates using EMEM supplemented with 10% heat-inactivated fetal bovine serum. The density of the cells was adjusted to 1 × 10^4 cells in 100 μL per well, the cells were seeded for 24 h at 37 °C, 5% CO2, then the medium was removed from the plates containing the cells, and the dilutions of compounds previously made in a separate plate were added to the cells in 200 μL. In the case of the colonic adenocarcinoma cells, the twofold serial dilutions of compounds were prepared in 100 μL of RPMI 1640, horizontally. The semi-adherent colonic adenocarcinoma cells were treated with Trypsin-Versene (EDTA) solution. They were adjusted to a density of 1 × 10^4 cells in 100 μL of RPMI 1640 medium and were added to each well, with the exception of the medium control wells. […]

[2] = tested on: HCT-116 colon carcinoma cells; assay: MTT assay, 96 h; type: cell-based, human
Description: as §1, §2, §3

Colo320 cells = assay: Apoptosis assay, Annexin-V-FITC/PI flow cytometry; conditions: 3 h induction
Method: An apoptosis assay was performed by flow cytometry via the analysis of multidrug-resistant Colo320 cells stained with Annexin-V-FITC and propidium iodide (PI).
Colo320 cells were treated at the indicated concentration of the compounds. The dual parametric dot plots combining Annexin-V (FL1) and PI (FL3) fluorescence show the viable cell population in the lower left quadrant Annexin-V–/PI– (Q4), the early apoptotic cells in the lower right quadrant Annexin-V+/PI– (Q3), and the late apoptotic and necrotic cells in the upper right quadrant Annexin-V+/PI+ (Q2).
The assay was carried out for selected compounds using an Annexin V-FITC Apoptosis Detection Kit (cat. no. APOAF-50TST) from Sigma according to the manufacturer’s instructions. The concentration of the Colo320 cell suspension was adjusted to approximately 0.5 × 10^6 cells/mL in an RPMI 1640 medium, and the cell suspension was distributed in 1 mL of aliquots into a 24-well plate and then incubated overnight at 37 °C and 5% CO2. On the following day, the medium was removed and replaced by 1 mL of RPMI medium containing the compounds except the control samples. […] After the incubation period, the samples were washed with PBS and fresh RPMI 1640 medium was added to the samples. The cells were incubated overnight at 37 °C and 5% CO2. The next day, 200 μL of 0.25% Trypsin (Trypsin-Versen) was added to the samples until cells appeared detached followed by the addition of 400 μL of RPMI 1640 medium supplemented with 10% bovine serum. The cells were collected in Eppendorf tubes and centrifuged at 2000g for 2 min. The harvested cells were resuspended in fresh serum-free RPMI 1640 culture medium. After this step, the apoptosis assay was carried out according to the instructions of the manufacturer. The fluorescence was analyzed immediately using a ParTec CyFlow flow cytometer (Partec GmbH, Münster, Germany).
• Apoptosis and DNA binding studies […]

## N.N.[Cl][Pt][Cl] [cisplatin, reference compound]
[1]
  IC50: 1700 nM
[2]
  IC50: 780 nM
Colo320 cells; 15 µM
  Cell death % Q1: 1.64%
  Early apoptosis % Q3: 1.68%
  Late apoptosis and necrosis % Q2: 2.24%
Colo320 cells; 30 µM
  Cell death % Q1: 0.79%
  Early apoptosis % Q3: 4.90%
  Late apoptosis and necrosis % Q2: 4.07%
